The source of these data is a melting point compilation (Tetko et al.; mined from patent text by program, amines drawn as free bases though some values may be those of a salt).

As for `CCCCCS(=O)(=O)NC(=O)/C=C/c1ccc(OCCC2(C)OCCO2)cc1Oc1ncc(C(F)(F)F)cc1Cl`, the melting point was 90 to 92 °C.

Molecule `O=C(Nc1cccc(Cl)c1)O[C@H]1COC(c2ccccc2)=N[C@@H]1c1ccccc1` (racemic) had a melting point of 160 °C.

The molecule `CCCSc1ccccc1S(N)(=O)=O` showed a melting point of 58 to 64 °C.

Regarding `CCc1nn(C(=O)NS(=O)(=O)c2c(C)cccc2Cl)c(=O)n1C`, the melting point was 176 °C.

`O=C1NC(=O)c2c1c(-c1ccccc1Cl)cc1c2c2cc(O)ccc2n1CCCc1nnn[nH]1`: the melting point fell in the range of 269 to 272 °C.

On to `O=C(c1cccc(F)c1)N1CCC2(CCn3c(nc(-c4ccncn4)cc3=O)N2)C1` (stereo not given), for which the melting point is 296 to 298 °C.

For the molecule `O=Cc1c(Cl)n(C2OC(CF)C(O)C2O)c2cc(Cl)c(Cl)cc12` (stereo not given), the melting point lay in the range of 207 to 208 °C.

For `CC(C)NC(=O)CCC(O)c1ccccc1` (stereo not given), the melting point was 131 to 135 °C.

`CC1=CC(=O)CC(c2cccc(Cl)c2)N1C` (stereo not given): the melting point was 82 °C.

In the case of `CN(C)/C=C/C(=O)c1ccc(C(F)(F)F)cc1`, the melting point lay within 96.5 to 98 °C.

On to `COC(=O)NC1=NCC(c2ccccc2Br)CN1` (stereo not given), for which the melting point was 213 to 215 °C.

The molecule `CCN1CN(C)C(=S)N(c2cc(Cl)ccc2C)C1` came in with a melting point of 93 to 95 °C.

`CNC(=O)C[C@@H](c1ccccc1)c1c[nH]c2cccc(OC)c12` returned a melting point of 178 to 181 °C.

Turning to `CS(=O)(=O)c1ccc(C(CC2CCCC2)c2nc(F)c(C(=O)C3CC3)[nH]2)cc1` (stereo not given), the melting point is 160 to 162 °C.

The molecule `IC#CCOc1cccnc1` gave a melting point of 130 °C.

The molecule `Cn1cccc1Cc1cccc(NC(N)=O)c1` yielded a melting point of 84 to 86 °C.

On to `C#CCN(Cc1ccc2nc(Cl)c(N)cc2c1)c1ccc(C(=O)N[C@@H](CCC(=O)O)C(=O)O)c(F)c1`, for which the melting point was 107 to 110 °C.

`O=C(NCc1cccc(-c2nc(=O)c3ccccc3s2)n1)c1cccs1` showed a melting point of 208 to 209 °C.

Regarding `COc1cc2c(cc1OC)CN(CCCSc1ccc(NC(=O)c3cccc4c(=O)c5cccc(OC)c5[nH]c34)cc1)CC2`, the melting point is 199 °C.

Take `COc1cc(Nc2ncnc3cc4cc(OCc5ccccc5)c(OC)cc4cc23)c(Cl)cc1Cl`: the melting point was 275 to 280 °C.

`Cn1cc(C=O)cc1C(=O)O` displayed a melting point of 178 to 180 °C.

For `CC1(C)COC(C(C)(C)Oc2ccc(Cl)cc2)=N1`, the melting point fell in the range of 59 to 61 °C.

Turning to `COc1ccc2c3c1OC1C4(CCC5(F)C(C2)N(C(=O)C2CC2)CCC315)OCCO4` (stereo not given), the melting point lay in the range of 191 to 193 °C.

Regarding `COC(=O)c1ccc(Cc2cccc3ccc(N)cc23)c(OC)c1`, the melting point lay in the range of 138 to 140 °C.

Regarding `O=c1[nH]c2ccc(NCCCc3ccccc3)cc2o1`, the melting point was 129 to 130 °C.

`CCCc1nc(OC)c(NC(=O)N2CCN(c3cccc(O)c3)CC2)cc1C`: the melting point was 153 to 155 °C.

In turn, `CCCCC(OC(=O)c1ccccc1)P(=O)(O)OC(CCCCN)C(=O)N1CCCC1C(=O)O` (stereo not given) had a melting point of 158 to 170 °C.

The molecule `CN1C(=O)c2ccc(CBr)cc2S1(=O)=O` showed a melting point of 153 to 154 °C.

With `O=C(c1cc(O)cc2cc(-c3ccc(O)cc3)oc12)C(F)(F)F`, the melting point was in the range of 215 to 216 °C.

`CC(C)=CCOc1c(I)cc(C(C)O)nc1Cl` (stereo not given) came in with a melting point of 80 to 81 °C.

As for `CCCCCCCCc1cc2c(cc1C(C)=O)C(C)(C)CCS2(=O)=O`, the melting point lay in the range of 77 to 78 °C.

For `COC(=O)C1=C(OC)c2ccccc2S(=O)(=O)N1C`, the melting point was in the range of 79 to 80 °C.

In turn, `O=C(O)Cc1c(C(=O)c2ccc(-c3cccs3)cc2)[nH]c2cc(Cl)ccc12` yielded a melting point of 246 to 249 °C.

Turning to `CCOC(OCC)c1coc2cc3c(cc2c1=O)OCO3`, the melting point was 123 to 125 °C.

Take `COc1ccc(CS[C@H]2C[C@@H](C(N)=O)N(CCF)C2)cc1`: the melting point is 122 to 123 °C.

`CC1(C)SC2C(N3C(=O)c4ccccc4C3=O)C(=O)N2C1C(=O)OCc1ccc([N+](=O)[O-])cc1` (stereo not given) registered a melting point of 233 to 234 °C.

Consider `COC(=O)c1ccc(CNC(=O)C[C@H]2O[C@H](c3cccc(OC)c3OC)c3cc(Cl)ccc3N(CC(C)(C)CO)C2=O)cc1`, for which the melting point was in the range of 110 to 112 °C.

The molecule `Cc1nc2ccc3c(c2o1)OC(CN1CC=C(c2ccccc2)CC1)CO3` (stereo not given) yielded a melting point of 170 to 173 °C.

Regarding `CCCNC(=O)C(O)C1(O)CCC2C3CCC4=CC(=O)C=CC4(C)C3C(O)CC21C` (stereo not given), the melting point was 251 to 253 °C.

As for `COc1ccc(N=Nc2ccc(O)c(C(=O)Nc3ccc4[nH]nnc4c3)c2)cc1`, the melting point fell in the range of 275 to 276 °C.

Molecule `COc1cc2c(cc1N)N(C)C(=O)CN(CC#N)C2` displayed a melting point of 128 to 132 °C.

For the molecule `IC#CCOc1ccncc1`, the melting point fell in the range of 140 to 141 °C.

`CC(C)(C)n1nc(Cc2ccncc2)c(C(N)=O)c1N` registered a melting point of 125 to 127 °C.

In turn, `CN(c1cccc2cc(-c3nccs3)[nH]c12)S(=O)(=O)c1ccsc1CCl` gave a melting point of 190 °C.

`CC(C)n1nc(-c2c(-c3ccccc3)nn3ccc(OCC(=O)NC4CC4)cc23)ccc1=O`: the melting point lay in the range of 199 to 200 °C.

On to `Oc1c(S)cc(I)cc1I`, for which the melting point is 178 to 180 °C.

Consider `CN(C)C(=O)N(C)c1nnc(C(C)(C)C#N)s1`, for which the melting point fell in the range of 92 to 94 °C.

In turn, `CC1(C)C(=N)N(CC(N)=O)c2ccccc21` had a melting point of 167 to 173 °C.

With `CCOCc1nc2c(N)nc3cc(OCCCCCCNC(C)=O)ccc3c2n1CC(C)(C)NS(C)(=O)=O`, the melting point is 169 to 171 °C.

Turning to `CC(C)c1ccc(C(Cl)=NOS(C)(=O)=O)cc1`, the melting point was in the range of 79.5 to 82 °C.

Turning to `Fc1ccc(-c2cn([C@H]3CN4CCC3CC4)nn2)cn1`, the melting point turned out to be 147 °C.

In the case of `O=C1C(=O)N(c2ccc(Cl)cc2)C(=O)N1c1ccccc1`, the melting point came to 154 °C.

For the molecule `COC(=O)c1cc(C(C)=O)ccc1OC`, the melting point fell in the range of 72 to 74 °C.

Molecule `CCOC(=O)c1c(-c2ccccc2Cl)c2cc(C)cc(C)c2[nH]c1=O` returned a melting point of 257 to 258 °C.

In turn, `O=C1C(c2ccc(-c3ccccc3)cc2)n2cncc2CN1Cc1ccc(F)cc1` (stereo not given) showed a melting point of 189 to 190 °C.

For the molecule `CC(C)c1cc(C(C)C)c(CC(=O)c2ccc(-c3ccccc3)c(OS(N)(=O)=O)c2-c2ccccc2)c(C(C)C)c1`, the melting point lay within 129 to 132 °C.

`CCC(C)C1CCCCC1NC(=O)c1sc(C)nc1C(F)(F)F` (stereo not given): the melting point lay within 112 to 113 °C.

As for `COc1ccc(Cl)cc1CC1CNC(=O)CN(S(=O)(=O)c2ccc(Cl)cc2)C1=O` (stereo not given), the melting point fell in the range of 110 to 112 °C.

As for `O=C(Cl)c1cccc(C(=O)Cl)c1[N+](=O)[O-]`, the melting point is 129 to 132 °C.

Consider `O=C(Nc1ccc(Cl)cc1)C(Oc1cccc2ccccc12)C1CC1` (stereo not given), for which the melting point was 204 to 206 °C.

The molecule `CCn1c(C)c(C(=O)c2ccc(N)cc2C(=O)O)c2ccccc21` came in with a melting point of 187 to 189 °C.

With `COc1ccc(C2(C34CC5CC(CC(C5)C3)C4)N=C(N)N(C)C2=O)cc1OC` (stereo not given), the melting point came out at 130 °C.

With `CCN(CC)CCCCCCCCNc1nc(N)nc(-c2cc(Cl)ccc2Cl)n1`, the melting point lay in the range of 101 to 102 °C.

Turning to `O=C(c1cc(-c2ccccc2)c(=O)n2c1-c1ccccc1C2)N1CCN(c2ccccc2)CC1`, the melting point was in the range of 208 to 210 °C.

`O=C(/C=C/c1ccc(Br)cc1)c1cnc2sccn12` showed a melting point of 213 to 215 °C.

Molecule `Brc1c[nH]c2ccc(Nc3ncnc4cc(-c5ccccc5)sc34)cc12` yielded a melting point of 201 to 203 °C.

In turn, `N#CCC(=O)Nc1ccc(C(F)(F)F)cc1` registered a melting point of 194 to 196 °C.

`CCOC(=O)c1nc2sc(CC)c([N+](=O)[O-])c2c(=O)[nH]1` returned a melting point of 200 to 212 °C.

`CNC(=O)c1ccc([C@@H]2C[C@H]3C=C(c4c[nH]c(-c5ccc(F)c(Cl)c5)c4-c4ccncc4)CCN3C2)cc1` gave a melting point of 176 to 178 °C.

For the molecule `COC(=O)Cc1ccc(C(C)(C)C)c([N+](=O)[O-])c1`, the melting point fell in the range of 92 to 95 °C.

Turning to `Nc1cc(C(F)(F)F)nc(C(F)(F)F)c1`, the melting point lay within 147 to 149 °C.

`c1ccc(OC2CCN(CCc3c[nH]c4ccccc34)CC2)cc1`: the melting point was in the range of 123 to 125 °C.

The molecule `Cc1ccc(S(=O)(=O)N2CCCC2c2cccc(Cl)c2)cc1` (racemic) returned a melting point of 107 °C.

Take `O=Cc1ccc(-c2ccccc2Cl)cc1`: the melting point lay in the range of 124 to 125 °C.

For the molecule `CC(C)(C)c1cc(N)cc(C(C)(C)C)c1O`, the melting point lay within 105 to 108 °C.

For `O=C(O)c1ccc(C(=O)Nc2cccc3cc(Br)cnc23)cc1`, the melting point is more than 300 °C.

`CC1(C2CCCC2)Cc2cc(OCC(=O)O)c(Cl)c(Cl)c2C1O` (stereo not given) showed a melting point of 129 to 131 °C.

In turn, `O=C(O)c1ccc(COCc2csc3nc(C(=O)NCCc4ccccc4)[nH]c(=O)c23)cc1` had a melting point of 227 to 229 °C.

Molecule `CNC(=O)c1nn(-c2ccc(Cl)cc2)c(=O)c2c(N)scc12` returned a melting point of 192 to 194 °C.

With `CCc1n[nH]c(=O)n1N`, the melting point was found to be 171 °C.

Molecule `O=C(N[C@H](Cc1ccc(F)cc1)[C@@H](O)c1ccc(F)cc1)C1CCCCC1` (racemic) showed a melting point of 203 to 204 °C.

Take `CCOC(=O)Cc1ccccc1NC(=O)c1sc2ccc(OC)cc2c1OC(C)C`: the melting point was in the range of 105 to 106 °C.

As for `O=c1nc(-c2ccc3c(c2)OCCO3)c2ccc3c(c2[nH]1)OCO3`, the melting point was more than 300 °C.

`CCCn1nc2c(Cl)nc3ccccc3c2c1C`: the melting point lay in the range of 145 to 147 °C.

Regarding `CCOC(=O)CNC(=O)c1cc(C(=O)c2ccccc2Cl)c(N)s1`, the melting point lay in the range of 216 to 218 °C.

The molecule `OC1(c2ccncc2)CCc2ccccc21` (stereo not given) displayed a melting point of 151 °C.

In turn, `C=C(C)COc1ccc(C(=O)C=Cc2ccc(N(C)C)cc2)c(O)c1` had a melting point of 85 to 87 °C.

Turning to `Cc1ccccc1-c1c(NC(=O)Nc2ccc(F)cc2F)c(=O)n(C)c2ccc(Cl)cc12`, the melting point was 163 to 165 °C.

Take `Cc1n[nH]c(=O)c(-c2c(F)cc(F)cc2F)c1-c1ccc2ccccc2c1`: the melting point fell in the range of 266 to 268 °C.

The molecule `CCOc1ccc(C(=O)N(C)Cc2cccc(-c3ccc(CC4SC(=O)NC4=O)cc3)c2)cc1` (stereo not given) came in with a melting point of 182 °C.
